Test results published in patent US20040198774A1, “Preventive and/or remedial agent for disease attributable to arteriosclerotic activity” (priority 2001, published 2004).

Columns and labels:
[1] = test system: MCP-1 secretion from human aortic endothelial cells (HAEC); assay: Secretion of MCP-1 from TNF-α stimulated human aortic endothelial cells (ELISA); type: cell-based; conditions: test agent 0.03 to 30 μM, TNF-α 10 ng/mL for 4 hours, FIG. 2
Description: An effect on the secretion of MCP-1 from vascular endothelial cells was investigated using human aortic endothelial cells (available from Clonetics Corp., USA, and hereienafter abbreviated as “HAEC”). In usual, the HAEC cells were cultured in EGM-2 medium (Clonetics) containing 2% FBS (Clonetics) in a CO2 incubator (5% CO2, 37° C.). On the first day, the HAEC cells suspended in EGM-2 medium containing 2% FBS were seeded in 96-well plates at 1×10^5 cells/well and then cultured. On the second day, after the cells were washed with PBS, the culture medium was replaced with 200 μL of EGM-2 medium containing 0.4% FBS and the test agent at various concentrations (0.03 to 30 μM) (final DMSO concentration: 0.1%) to culture the cells for 24 hours. On the third day, after the cells were washed with PBS, the culture medium was replaced with 200 μL of EGM-2 medium containing 0.4% FBS, TNF-α (10 ng/mL), and the test agent at various concentrations (0.03 to 30 μM) (final DMSO concentration: 0.1%) to stimulate the cells for 4 hours. After stimulation with TNF-α, the culture medium was collected to measure the MCP-1 concentration of the culture medium by the use of a human MCP-1 ELISA kit (Biosource).

[2] = test system: VCAM-1 expression in human aortic endothelial cells (HAEC); assay: Expression of VCAM-1 in TNF-α stimulated human aortic endothelial cells (cell ELISA); type: cell-based; conditions: test agent 0.03 to 30 μM, TNF-α 10 ng/mL for 4 hours, FIG. 1
Description: An effect on the expression of adhesion molecules in vascular endothelial cells was investigated using human aortic endothelial cells (available from Clonetics Corp., USA, and hereinafter abbreviated as “HAEC”). In usual, the HAEC cells were cultured in EGM-2 medium (Clonetics) containing 2% FBS (Clonetics) in a CO2 incubator (5% CO2, 37° C.). On the first day, the HAEC cells suspended in EGM-2 medium containing 2% FBS were seeded in 96-well plates at 1×10^5 cells/well and then cultured. On the second day, after the cells were washed with PBS, the culture medium was replaced with 200 μL of EGM-2 medium containing 0.4% FBS and the test agent at various concentrations (0.03 to 30 μM) (final DMSO concentration: 0.1%) to culture the cells for 24 hours. On the third day, after the cells were washed with PBS, the culture medium was replaced with 200 μL of EGM-2 medium containing 0.4% FBS, TNF-α (10 ng/mL) and the test agent at various concentrations (0.03 to 30 μM) (final DMSO concentration: 0.1%) to stimulate the cells for 4 hours. After stimulation with TNF-α, the cells were washed with PBS, and then the amount of VCAM-1 expressed was evaluated according to the following cell ELISA method using an anti-human VCAM-1 antibody solution (PharMingen). Namely, the cells were fixed and blocked using paraformaldehyde, and then 200 μL of the anti-human VCAM-1 antibody solution (PharMingen) was added as a primary antibody to induce a primary antibody response for overnight incubation. Next day, 200 μL of HRP-labeled anti-Mouse IgG (γ+L) Goat F (Ab7)2 was added as a secondary antibody to induce a secondary antibody response for 4 hours, and then a substrate solution (ortho-phenylenediamine and hydrogen peroxide) was added. After reaction, the absorbance was measured using a microplate spectrophotometer, and the obtained absorbance was used as an index of the amount of VCAM-1 expressed.

[3] = molecular target: T1, human PPARγ (Homo sapiens, UniProt P37231); assay: PPARγ transcription activation, Gal4-hPPARγ (LBD)/Gal4-Luc reporter in 293 T cells; type: cell-based; conditions: Gal4-hPPARγ (LBD) luciferase reporter, 32 hours exposure, 0.03 to 30 μM, read-out: EC50 values of PPARs transcription activation effect, PPARγ
T1 construct: expressed in transfected cells; host or cells: 293 T cells
T1 sequence (P37231 238-503 limits assumed): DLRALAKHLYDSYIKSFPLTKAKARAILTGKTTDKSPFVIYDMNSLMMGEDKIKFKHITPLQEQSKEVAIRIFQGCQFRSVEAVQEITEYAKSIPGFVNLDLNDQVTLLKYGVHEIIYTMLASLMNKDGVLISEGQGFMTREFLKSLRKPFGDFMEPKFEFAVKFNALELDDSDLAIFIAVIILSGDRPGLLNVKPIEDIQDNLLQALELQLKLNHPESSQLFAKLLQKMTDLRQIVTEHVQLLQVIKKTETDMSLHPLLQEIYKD

[4] = molecular target: T2, human PPARδ (Homo sapiens, UniProt Q03181); assay: PPARδ transcription activation, Gal4-hPPARδ (LBD)/Gal4-Luc reporter in 293 T cells; type: cell-based; conditions: Gal4-hPPARδ (LBD) luciferase reporter, 32 hours exposure, 0.03 to 30 μM, read-out: EC50 values of PPARs transcription activation effect, PPARδ
T2 construct: expressed in transfected cells; host or cells: 293 T cells
T2 sequence (Q03181 211-439 limits assumed): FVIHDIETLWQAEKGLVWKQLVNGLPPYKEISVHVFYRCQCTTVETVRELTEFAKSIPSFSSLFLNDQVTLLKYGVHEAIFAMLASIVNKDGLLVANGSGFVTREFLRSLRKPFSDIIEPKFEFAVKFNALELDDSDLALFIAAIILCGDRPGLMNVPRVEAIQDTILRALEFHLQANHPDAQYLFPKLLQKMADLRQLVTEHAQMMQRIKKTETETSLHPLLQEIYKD
Description: (§1) On the second day, a transfection mixture, which contained with 9 μL of TransIT-LT1 (Takara), 2 μg of the Gal4-hPPARα (LBD) vector, the Gal4-hPPARγ (LBD) vector or the Gal4-hPPARδ (LBD) vector, 1 μg of the Gal4-Luc and 200 μL of DMEM (without FBS), was gently added to the cells at 200 μL per well. The cells were cultured all day and night to carry out gene introduction to the cells. For the investigation of the specificity of the effect on the introduced PPAR genes, gene introduction was carried out in the same manner described above using a vector without PPAR ligand-binding domain (hereinafter abbreviated as a “Gal4-control vector”). On the third day, the cells in 3 wells of the 6-well plates were combined to adjust the concentration of cells to 3×10^5 cells/mL, and the obtained one was dispensed in 96-well plates at 100 μL/well to culture the cells. On the fourth day, the culture medium was replaced with 50 μL of the DMEM (+) containing the test compound at various concentrations (0.03 to 30 μM) (final DMSO concentration: 0.1%) to culture the cells. After the cells were exposed to the compound for 32 hours, 50 μL of Luc-Screen (Applied Biosystems) was added. 70 μL of the reaction solution in each well was moved to white plates to measure luminescence emitted due to the reaction of luciferase by the use of a Microplate Luminometer (EG & G berthold, LB96P).

[5] = molecular target: T3, human PPARα (Homo sapiens, UniProt Q07869); assay: cell-based
T3 sequence (Q07869 239-466 limits assumed): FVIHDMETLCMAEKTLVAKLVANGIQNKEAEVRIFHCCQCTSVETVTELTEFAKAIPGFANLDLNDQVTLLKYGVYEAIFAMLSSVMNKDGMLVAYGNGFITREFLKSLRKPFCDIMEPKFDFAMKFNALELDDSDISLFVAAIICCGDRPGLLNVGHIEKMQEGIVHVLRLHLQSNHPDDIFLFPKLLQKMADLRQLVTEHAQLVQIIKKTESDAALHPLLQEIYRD
Description: as §1

| SMILES | effect on the secretion of MCP-1 induced by stimulation with TNF-α [1] | effect on the expression of VCAM-1 induced by stimulation with TNF-α [2] | EC50 [3] [µM] | EC50 [4] [µM] | EC50 [5] [µM] |
| --- | --- | --- | --- | --- | --- |
| CC(C)OC(=O)C(C)(C)Oc1ccc(C(=O)c2ccc(Cl)cc2)cc1 [Fenofibrate] | no effect |  |  |  |  |
| Cc1cc(SCc2sc(-c3ccc(C(F)(F)F)cc3)nc2C)ccc1OCC(=O)O [GW501516] | suppressed | suppressed |  |  |  |
| CCc1ccc(CCOc2ccc(CC3SC(=O)NC3=O)cc2)nc1 (stereo not drawn) [Pioglitazone] | no effect | no effect |  |  |  |
| O=C1NC(=O)C(Cc2ccc3cc(OCc4ccccc4F)ccc3c2)S1 (stereo not drawn) [MCC-555, 5-[6-(2-fluorobenzyloxy)-2-naphthyl]-methyl-thiazolidine-2,4-dione] |  |  | 6.2 | 1.2 | 1 |
| Cc1cccc(Nc2cc(Cl)nc(SCC(=O)O)n2)c1C [Wy-14643] | no effect | suppressed |  |  |  |
| CN(CCOc1ccc(CC2SC(=O)NC2=O)cc1)c1ccccn1 (stereo not drawn) [Rosiglitazone] | no effect | no effect |  |  |  |
